Tests used:
NPY Y1 receptor = target: T1, NPY Y1 receptor (Homo sapiens, UniProt P25929); assay: cAMP measurement test in SK-N-MC cells (shift of NPY dose-effect curves, forskoline-stimulated); format: cell-based; conditions: Schild analysis vs NPY, read-out: pA2 Y1 (converted)
T1 construct: host or cells: SK-N-MC cells (whole-cell suspension)
T1 sequence (P25929 1-384): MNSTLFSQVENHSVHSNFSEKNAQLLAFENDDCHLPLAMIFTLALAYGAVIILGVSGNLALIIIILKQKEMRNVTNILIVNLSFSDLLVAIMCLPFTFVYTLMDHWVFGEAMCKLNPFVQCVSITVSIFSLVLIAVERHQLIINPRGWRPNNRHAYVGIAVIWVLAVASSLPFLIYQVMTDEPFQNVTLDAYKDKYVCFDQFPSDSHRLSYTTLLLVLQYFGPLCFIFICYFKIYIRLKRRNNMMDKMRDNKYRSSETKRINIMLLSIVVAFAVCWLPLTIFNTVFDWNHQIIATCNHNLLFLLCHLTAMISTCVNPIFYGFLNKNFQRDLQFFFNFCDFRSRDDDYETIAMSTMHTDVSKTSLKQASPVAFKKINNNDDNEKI
Method: The SK-N-MC cells are cultured in 96-well plates. After aspirating the culture medium, the cells are washed with a phosphate buffer pH 7.4 (Invitrogen ref. 14190-094), then lifted with a Versene solution (Invitrogen, ref 15040-033). The cells are centrifuged at 500×g for 10 minutes at 4° C. They are resuspended in a stimulation buffer containing isobutyl-methyl-xanthine in sufficient concentration to inhibit the phosphodiesterases (Flashplate kit, Perkin Elmer). The tested compounds are added 10 minutes before depositing the NPY (Bachem, H3322) in variable concentration, then the 300 nM forskoline (Sigma, F6886). The cells are in cubated 1 hour at ambient temperature to allow cAMP production whose levels are measured using the Flashplate method after 2 hours incubation with the cAMP tracer [^125I]. The results are expressed in pA2 form observing the displacement of NPY dose-effect curves in the absence and presence of increasing concentrations of test compound [Schild, 1949, pAx and competitive drug antagonism, Br. J. Pharmacol., 4, 277-280].

human Y4 receptor = target: T2, human Y4 receptor (Homo sapiens, UniProt P50391); assay: Binding test to the NPY Y4 receptor ([125I]-human PP, CHO cell membranes); conditions: human Y4, [125I]-human PP
T2 construct: expressed in transfected cells; host or cells: CHO cells (CHO-Y4H), membrane preparation
Method: (§1) The CHO cells expressing either the Y4 or the Y5 human recombinant receptor are cultured in DMEM medium to which is added 5% dialysed foetal calf serum, 10 mM Hepes buffer and 0.8 g/l sodium bicarbonate. They are lifted from their support using a 36 mM citrate buffer without trypsin and without EDTA, and washed in PBS buffer free of Ca^2+ and of Mg^2+. The cell residues are stored at (−80° C.) until fractioning.
(§2) The cell residue is redissolved in 10 mM TRIS buffer, 3 mM MgCl2, pH 7.4 and separated with polytron. After centrifuging at 20 000×g the residue is redissolved in this same buffer, potter separated and aliquoted for storage in liquid nitrogen to around 5 mg/ml proteins.
(§3) Approximately 80 μg of membranes of CHO cells having stable expression of the human Y4 receptor are incubated for 60 min at 30° C. in 200 μl Krebs-Ringer buffer (pH 7.4) containing 20 mM Hepes, 1% bovine serum albumin, 0.25 mg/ml bacitracin and 0.1 nM of [^125I]-human PP (Pancreatic Polypeptide, Perkin Elmer, NEX 315). The reaction is halted by filtering through Wathman GF/C filters and washing with 3 times 4 ml of buffer at 4° C. The radioactivity deposited on the filter is counted with a gamma counter (Whizard 1470, Wallac, Perkin Elmer). Non-specific binding is determined in the presence of 0.3 μM of human PP (Neosystem, SC104). […]

human Y5 receptor = target: T3, human Y5 receptor (Homo sapiens, UniProt Q15761); assay: Binding test to the NPY Y5 receptor ([125I]-human PYY, CHO cell membranes)
T3 construct: expressed in transfected cells; host or cells: CHO cells (CHO-Y5H), membrane preparation
T3 sequence (Q15761 1-445): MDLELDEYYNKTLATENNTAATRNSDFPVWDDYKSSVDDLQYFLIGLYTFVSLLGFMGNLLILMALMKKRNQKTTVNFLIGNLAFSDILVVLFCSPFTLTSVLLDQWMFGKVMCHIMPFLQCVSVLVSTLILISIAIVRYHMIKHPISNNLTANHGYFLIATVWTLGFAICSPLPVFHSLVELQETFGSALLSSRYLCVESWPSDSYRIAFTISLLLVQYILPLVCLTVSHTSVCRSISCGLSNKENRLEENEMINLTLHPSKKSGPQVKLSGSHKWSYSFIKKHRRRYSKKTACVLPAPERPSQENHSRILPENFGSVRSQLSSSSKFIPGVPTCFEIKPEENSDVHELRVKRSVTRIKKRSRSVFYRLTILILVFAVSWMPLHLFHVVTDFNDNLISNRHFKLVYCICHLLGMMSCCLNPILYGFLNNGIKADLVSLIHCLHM
Method: as §1, §2
as §3, with “Y5” for “Y4”, “PYY (Perkin” for “PP (Pancreatic Polypeptide, Perkin”, “341).” for “315).”, “porcine NPY” for “of human PP”, “SC116).” for “SC104).”

T2 sequence (P50391 whole entry): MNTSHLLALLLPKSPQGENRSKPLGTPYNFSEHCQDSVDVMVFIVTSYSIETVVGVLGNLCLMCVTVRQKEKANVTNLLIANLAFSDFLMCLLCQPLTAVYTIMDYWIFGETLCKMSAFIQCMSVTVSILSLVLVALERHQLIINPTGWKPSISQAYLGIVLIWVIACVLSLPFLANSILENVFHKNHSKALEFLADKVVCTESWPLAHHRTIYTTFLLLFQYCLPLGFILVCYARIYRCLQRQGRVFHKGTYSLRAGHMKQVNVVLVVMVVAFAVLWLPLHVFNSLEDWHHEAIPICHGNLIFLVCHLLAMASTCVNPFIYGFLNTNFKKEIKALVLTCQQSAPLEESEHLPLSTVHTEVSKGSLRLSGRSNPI

**Q.** How did the Kb (NPY Y1 receptor) turn out when `CCCCN1CCC(Oc2ccc(C(=O)Nc3ccc(Oc4ccc(NC(=O)NC(CC)CC)cc4OC)cc3)cc2)CC1` [Example 103, 4-(1-Butyl-piperidin-4-yloxy)-N-(4-{4-[3-(1-ethyl-propyl)-ureido]-2-methoxy-phenoxy}-phenyl)-benzamide] was run?
**A.** 6.31 nM

**Q.** What about the IC50 (human Y4 receptor) of the same molecule?
**A.** 2620 nM

**Q.** And the IC50 (human Y5 receptor; CHO membranes, human Y5, [125I]-human PYY)?
**A.** > 10000 nM

**Q.** And the inhibition at 10 µM (human Y5 receptor; inhibition of specific binding at 10 μM of compound, read-out: % Inh at 10 μM Y5)?
**A.** 0%
